Test results: patent US20030157516A1, “G protein coupled receptor” (priority 2000, published 2003)
Values joined by “and” are separate entries in the source; they are usually repeats but may differ in a detail not shown here. Equal values may be shown once. Read-outs that look alike come from different tables or passages of the source.

How the values were obtained:
[1] = target: T1, adenine binding rat receptor (Rattus norvegicus, UniProt Q7TN49); test: [35S]GTPγS binding on CHO membranes transiently transfected; format: biochemical; settings: for % stim.: increase above basal
T1 construct: expressed in transfected cells; host or cells: CHO cells, transient, lipofectamine PLUS
T1 sequence (Q7TN49 1-304): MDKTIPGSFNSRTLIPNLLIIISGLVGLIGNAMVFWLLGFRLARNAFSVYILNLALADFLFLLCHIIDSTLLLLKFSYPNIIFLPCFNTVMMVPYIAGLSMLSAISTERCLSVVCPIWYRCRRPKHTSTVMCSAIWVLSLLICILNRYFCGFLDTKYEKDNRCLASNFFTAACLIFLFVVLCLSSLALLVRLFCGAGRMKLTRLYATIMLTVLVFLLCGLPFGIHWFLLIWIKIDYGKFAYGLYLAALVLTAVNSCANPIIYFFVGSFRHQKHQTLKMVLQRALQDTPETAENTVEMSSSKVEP
Description: a) Methods—Determination of [^35S ]GTPγS binding to the G-proteins was carried out according to a modified procedure of Lazareno (Methods Mol. Biol., 83:107-116, 1997). These experiments were performed for a first functional evaluation of the receptor on the level of a membrane preparation.
The assay mixture contained 10 and 35 μg of membrane protein for the transfected and wild type CHO cells, respectively.
For testing agonistic activity, 175 μl of diluted membranes was pre-incubated in the buffer described above together with 25 μl of buffer and 25 μl of varying concentrations of the compound in a total volume of 225 μl. After a 20 minute pre-incubation period at 30° C., 25 μl of [^35S]GTPγS was added to a final concentration of 0.25 nM and the assay mixtures were further incubated for 20 minutes at 30° C. Bound and free [^35S]GTPγS were separated by rapid filtration over an UniFilter™-96, GF/B™ under reduced pressure using Filtermate 196 filtration (Packard Company (Netherlands). The amount of bound radioactivity on the filter unit was determined after drying of the filters and scintillant addition (Microscint-O; Packard Company) by liquid scintillation counting.
Basal [^35S]GTPγS binding was measured in absence of compounds. Stimulation by agonist was calculated as the percentage increase above basal levels. The sigmoid agonist concentration-response curves were analyzed by non-linear regression using the GraphPad Prism program. The different concentration points were run in duplicates and the reported data were retrieved from independent experiments.

rat adenine binding GPCR = target: T2, rat adenine binding GPCR (Rattus norvegicus, UniProt Q7TN49); test: FLIPR Ca2+ transient assay, agonism, HEK293/Gq chimera cells transiently transfected with rat adenine binding GPCR/pcDNA3; format: cell-based; set-up: The full length reading frame was inserted into the mammalian expression vector pcDNA3; expressed in transfected cells; host or cells: HEK293 cells stably transfected with pLEC/Gqi or pLEC/Gqo
T2 sequence (Q7TN49 1-304): T1 sequence (Q7TN49 1-304)
Source text: This assay is based around an instrument called a FLuorescence Imaging Plate Reader ((FLIPR®), Molecular Devices Corporation). In its most common configuration, it excites and measures fluorescence emitted by fluorescein-based dyes. It uses an argon-ion laser to produce high power excitation at 488 nm of a fluorophore, a system of optics to rapidly scan the over the bottom of a 96-/384-well plate and a sensitive, cooled CCD camera to capture the emitted fluorescence. It also contains a 96-/384-well pipetting head allowing the instrument to deliver solutions of test agents into the wells of a 96-/384-well plate. The FLIPR assay is designed to measure fluorescence signals from populations of cells before, during and after addition of compounds, in real time, from all 96-/384-wells simultaneously. […] As described below, calcium transients in cells transfected with adenine binding GPCR were measured using the FLIPR assay in order to measure activation of the receptors by various substrates in order to determine the natural ligand of the receptor.
The full length reading frame was inserted into the mammalian expression vector pcDNA3 (Invitrogen, Carlsbad, Calif., U.S.A.) and the resulting expression construct was transiently transfected with the FuGENE 6 reagent (Roche Molecular Biochemicals, Mannheim, Germany) into HEK293 cells stably transfected (E. Bender, unpublished) with pLEC/Gqi or pLEC/Gqo (Molecular Devices, Sunnyvale, Calif., U.S.A.). The cells were loaded with Fluo-4 (Molecular Probes, Eugene, Oreg., U.S.A.) according to the recommendations of the supplier. […]
Using the FLIPR assay as above, calcium transients were measured in both sets of cells with the transients attributable to the novel GPCR measured as the difference between the two transients. Results are illustrated in FIG. 4. […]

[2] = transiently transfected CHO membranes
[3] = transiently transfected cells, mean of n experiments
[4] = transiently transfected cells, single experiments
[5] = transiently transfected cells, single experiments, read-out: pEC50 (converted)

Nc1ncnc2c1ncn2[C@@H]1O[C@H](COP(=O)(O)O)[C@@H](O)[C@H]1O [AMP]
stimulation of the receptor ([35S]GTPγS binding) [1, 2]: stimulated the receptor partially with a much lower potency | % stim. [1, 3]: 95% | pEC50 [1, 3]: 4.35 | agonism of nucleoside and nucleotide derivatives of adenine (rat adenine binding GPCR; at high concentrations (>3.3 μM)): weak partial agonism

Nc1ncnc2nc[nH]c12 [Adenine, adenine]
EC50 ([1]; transiently transfected CHO membranes, read-out: mean EC50): 0.112 µM | % stim. [1, 3]: 148% | % stim. ([1]; transiently transfected cells, mean of n experiments, listed as adenine): 150% | % stim. [1, 4]: 177% and 199% and 106% and 111% | EC50 [1, 5]: 0.0955 µM and 0.115 µM and 0.132 µM | calcium transients (agonistic activity) (rat adenine binding GPCR; HEK293/Gaqo cells, 3.3 nM-33 μM, difference to empty-vector cells): dose responsive calcium transient

Cn1cnc2ncnc-2c1N [1-Methyladenine]
stimulation of the receptor ([35S]GTPγS binding) [1, 2]: stimulated the receptor partially with a much lower potency | % stim. [1, 3]: 129% | % stim. [1, 4]: 90% and 135% and 161% | EC50 ([1]; transiently transfected cells, mean of n experiments, read-out: pEC50 (converted)): 15.1 µM | EC50 [1, 5]: 16.2 µM and 12 µM and 17.8 µM
